Values of other authors in patent US9226984B2, “Entrapment of radionuclides in nanoparticle compositions” (Technical University of Denmark and Rigshospitalet, priority 2010, dated 2016).

Conditions: ionophore-assisted loading

In the case of `Oc1cccc2cccnc12` [oxine, 8-hydroxyquinoline], the “64Cu2+ retention of liposomes loaded with the ionophore” value is given as “unstable liposomes”.
